Data from US12077503B2, “Substituted cyclic amides and their use as herbicides” (FMC CORPORATION, priority 2015, dated 2024).

Tests used:
Format in all cases: in vivo
[1] = system: barnyardgrass (Echinochloa crus-galli); assay: Test A preemergence; conditions: for Plant response rating, Barnyardgrass: 125 g ai/ha, preemergence, 0 to 100 scale (0 no effect, 100 complete control); for Barnyardgrass plant response rating (0 to 100 scale): Preemergence, 500 g ai/ha, 0 is no effect, 100 is complete control
Outline: (§1)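 Seeds sprayed preemergence with a directed soil spray, or plants at 2 to 10 cm height and one- to two-leaf stage sprayed postemergence, with test chemicals in a non-phytotoxic solvent mixture containing surfactant, in loam soil–sand blend. Injury rated visually against untreated controls after about 10 d in greenhouse, 0 (no effect) to 100 (complete control).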

[2] = system: corn (Zea mays); assay: Test A preemergence; conditions: for Plant response rating, Corn: 125 g ai/ha, preemergence, 0 to 100 scale (0 no effect, 100 complete control); for Corn plant response rating (0 to 100 scale): Preemergence, 500 g ai/ha, 0 is no effect, 100 is complete control
Outline: as §1

[3] = system: crabgrass, large (Digitaria sanguinalis); assay: Test A preemergence; conditions: for Plant response rating, Crabgrass, Large: 125 g ai/ha, preemergence, 0 to 100 scale (0 no effect, 100 complete control); for Crabgrass, Large plant response rating (0 to 100 scale): Preemergence, 500 g ai/ha, 0 is no effect, 100 is complete control
Outline: as §1

[4] = system: giant foxtail (Setaria faberii); assay: Test A preemergence; conditions: for Plant response rating, Foxtail, Giant: 125 g ai/ha, preemergence, 0 to 100 scale (0 no effect, 100 complete control); for Foxtail, Giant plant response rating (0 to 100 scale): Preemergence, 500 g ai/ha, 0 is no effect, 100 is complete control
Outline: as §1

[5] = system: morningglory (Ipomoea spp.); assay: Test A preemergence; conditions: for Plant response rating, Morningglory: 125 g ai/ha, preemergence, 0 to 100 scale (0 no effect, 100 complete control); for Morningglory plant response rating (0 to 100 scale): Preemergence, 500 g ai/ha, 0 is no effect, 100 is complete control
Outline: as §1

[6] = system: pigweed (Amaranthus retroflexus); assay: Test A preemergence; conditions: for Plant response rating, Pigweed: 125 g ai/ha, preemergence, 0 to 100 scale (0 no effect, 100 complete control); for Pigweed plant response rating (0 to 100 scale): Preemergence, 500 g ai/ha, 0 is no effect, 100 is complete control
[7] = system: velvetleaf (Abutilon theophrasti); assay: Test A preemergence; conditions: for Plant response rating, Velvetleaf: 125 g ai/ha, preemergence, 0 to 100 scale (0 no effect, 100 complete control); for Velvetleaf plant response rating (0 to 100 scale): Preemergence, 500 g ai/ha, 0 is no effect, 100 is complete control
Outline: as §1

[8] = system: wheat (Triticum aestivum); assay: Test A preemergence; conditions: for Plant response rating, Wheat: 125 g ai/ha, preemergence, 0 to 100 scale (0 no effect, 100 complete control); for Wheat plant response rating (0 to 100 scale): Preemergence, 500 g ai/ha, 0 is no effect, 100 is complete control
Outline: as §1

[9] = system: barnyardgrass (Echinochloa crus-galli); assay: Test A postemergence
Outline: as §1

[10] = system: corn (Zea mays); assay: Test A postemergence
Outline: as §1

[11] = system: crabgrass, large (Digitaria sanguinalis); assay: Test A postemergence
Outline: as §1

[12] = system: giant foxtail (Setaria faberii); assay: Test A postemergence
Outline: as §1

[13] = system: morningglory (Ipomoea spp.); assay: Test A postemergence
Outline: as §1

[14] = system: pigweed (Amaranthus retroflexus); assay: Test A postemergence
Outline: as §1

[15] = system: velvetleaf (Abutilon theophrasti); assay: Test A postemergence
Outline: as §1

[16] = system: wheat (Triticum aestivum); assay: Test A postemergence
Outline: as §1

[17] = system: barnyardgrass (Echinochloa crus-galli); assay: Test C flooded paddy test; conditions: Flood, 0 is no effect, 100 is complete control
Outline: (§2)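 Rice, small-flower umbrella sedge, ducksalad and barnyardgrass at the 2-leaf stage were flooded to 3 cm, and compound was applied into the paddy water. After 13 to 15 d in a greenhouse, plants were rated visually against controls on a 0 (no effect) to 100 (complete control) scale.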

[18] = system: ducksalad (Heteranthera limosa); assay: Test C flooded paddy test; conditions: Flood, 0 is no effect, 100 is complete control
Outline: as §2

[19] = system: rice (Oryza sativa); assay: Test C flooded paddy test; conditions: Flood, 0 is no effect, 100 is complete control
Outline: as §2

[20] = system: sedge, umbrella (small-flower umbrella sedge, Cyperus difformis); assay: Test C flooded paddy test; conditions: Flood, 0 is no effect, 100 is complete control
Outline: as §2

[21] = 500 g ai/ha, postemergence, 0 to 100 scale, 0 no effect, 100 complete control
[22] = Postemergence, 125 g ai/ha, visual injury, 0 to 100 scale (0 no effect, 100 complete control), approx. 10 d

O=C1NCC(c2ccoc2)C1C(=O)Nc1ccccc1C(F)(F)F (racemic) [Compound 364]
0: Plant response rating, Barnyardgrass [1] | Barnyardgrass plant response rating (0 to 100 scale) [1] | Plant response rating, Corn [2] | Corn plant response rating (0 to 100 scale) [2] | Plant response rating, Crabgrass, Large [3] | Crabgrass, Large plant response rating (0 to 100 scale) [3] | Plant response rating, Foxtail, Giant [4] | Foxtail, Giant plant response rating (0 to 100 scale) [4] | Plant response rating, Morningglory [5] | Morningglory plant response rating (0 to 100 scale) [5] | Plant response rating, Pigweed [6] | Pigweed plant response rating (0 to 100 scale) [6] | Plant response rating, Velvetleaf [7] | Velvetleaf plant response rating (0 to 100 scale) [7] | Plant response rating, Wheat [8] | Wheat plant response rating (0 to 100 scale) [8] | Plant response rating, Barnyardgrass [9, 21] | Plant response rating, Barnyardgrass [9, 22] | Plant response rating, Corn [10, 21] | Plant response rating, Corn [10, 22] | Plant response rating, Crabgrass, Large [11, 21] | Plant response rating, Crabgrass, Large [11, 22] | Plant response rating, Foxtail, Giant [12, 21] | Plant response rating, Foxtail, Giant [12, 22] | Plant response rating, Morningglory [13, 21] | Plant response rating, Morningglory [13, 22] | Plant response rating, Pigweed [14, 21] | Plant response rating, Pigweed [14, 22] | Plant response rating, Velvetleaf [15, 21] | Plant response rating, Wheat [16, 21] | Plant response rating, Wheat [16, 22] | Plant response rating (scale of 0 to 100), Barnyardgrass ([17]; 31 g ai/ha) | Plant response rating (scale of 0 to 100), Barnyardgrass ([17]; 62 g ai/ha) | Plant response rating (scale of 0 to 100), Barnyardgrass ([17]; 125 g ai/ha) | Plant response rating (scale of 0 to 100), Barnyardgrass ([17]; 250 g ai/ha) | Plant response rating (scale of 0 to 100), Ducksalad ([18]; 31 g ai/ha) | Plant response rating (scale of 0 to 100), Ducksalad ([18]; 62 g ai/ha) | Plant response rating (scale of 0 to 100), Ducksalad ([18]; 125 g ai/ha) | Plant response rating (scale of 0 to 100), Ducksalad ([18]; 250 g ai/ha) | Plant response rating (scale of 0 to 100), Rice ([19]; 31 g ai/ha) | Plant response rating (scale of 0 to 100), Rice ([19]; 62 g ai/ha) | Plant response rating (scale of 0 to 100), Rice ([19]; 125 g ai/ha) | Plant response rating (scale of 0 to 100), Rice ([19]; 250 g ai/ha) | Plant response rating (scale of 0 to 100), Sedge, Umbrella ([20]; 31 g ai/ha) | Plant response rating (scale of 0 to 100), Sedge, Umbrella ([20]; 62 g ai/ha) | Plant response rating (scale of 0 to 100), Sedge, Umbrella ([20]; 125 g ai/ha) | Plant response rating (scale of 0 to 100), Sedge, Umbrella ([20]; 250 g ai/ha)

O=C1NCC(c2ccoc2)C1C(=O)Nc1ccccc1F (racemic) [Compound 356]
0: Plant response rating, Barnyardgrass [1] | Barnyardgrass plant response rating (0 to 100 scale) [1] | Plant response rating, Corn [2] | Corn plant response rating (0 to 100 scale) [2] | Plant response rating, Crabgrass, Large [3] | Crabgrass, Large plant response rating (0 to 100 scale) [3] | Plant response rating, Foxtail, Giant [4] | Foxtail, Giant plant response rating (0 to 100 scale) [4] | Plant response rating, Morningglory [5] | Morningglory plant response rating (0 to 100 scale) [5] | Plant response rating, Pigweed [6] | Pigweed plant response rating (0 to 100 scale) [6] | Plant response rating, Velvetleaf [7] | Velvetleaf plant response rating (0 to 100 scale) [7] | Plant response rating, Wheat [8] | Wheat plant response rating (0 to 100 scale) [8] | Plant response rating, Barnyardgrass [9, 21] | Plant response rating, Barnyardgrass [9, 22] | Plant response rating, Corn [10, 21] | Plant response rating, Corn [10, 22] | Plant response rating, Crabgrass, Large [11, 21] | Plant response rating, Crabgrass, Large [11, 22] | Plant response rating, Foxtail, Giant [12, 21] | Plant response rating, Foxtail, Giant [12, 22] | Plant response rating, Morningglory [13, 21] | Plant response rating, Morningglory [13, 22] | Plant response rating, Pigweed [14, 21] | Plant response rating, Pigweed [14, 22] | Plant response rating, Velvetleaf [15, 21] | Plant response rating, Velvetleaf [15, 22] | Plant response rating, Wheat [16, 21] | Plant response rating, Wheat [16, 22] | Plant response rating (scale of 0 to 100), Barnyardgrass ([17]; 62 g ai/ha) | Plant response rating (scale of 0 to 100), Barnyardgrass ([17]; 250 g ai/ha) | Plant response rating (scale of 0 to 100), Ducksalad ([18]; 62 g ai/ha) | Plant response rating (scale of 0 to 100), Ducksalad ([18]; 250 g ai/ha) | Plant response rating (scale of 0 to 100), Rice ([19]; 62 g ai/ha) | Plant response rating (scale of 0 to 100), Rice ([19]; 250 g ai/ha) | Plant response rating (scale of 0 to 100), Sedge, Umbrella ([20]; 62 g ai/ha) | Plant response rating (scale of 0 to 100), Sedge, Umbrella ([20]; 250 g ai/ha)
